# Test results from patent US9605006B2, “5-aryl-1-imino-1-oxo-[1,2,4]thiadiazines” (Hoffmann-La Roche Inc., priority 2013, dated 2017).
# Molecular target: BACE1 (Homo sapiens (Human), UniProt P56817)
# Test: Cellular Aβ-lowering assay (Abeta 40 AlphaLISA Assay)
# Type: cell-based
# Details: HEK293 APP cells, Aβ40 in culture supernatant after 18-20 hrs incubation
# Method: Cellular Aβ-Lowering Assay:
# The Abeta 40 AlphaLISA Assay can be used. The HEK293 APP cells were seeded in 96 well Microtiter plates in cell culture medium (Iscove's, plus 10% (v/v) fetal bovine serum, penicillin/streptomycin) to about 80% confluency and the compounds were added at a 3× concentration in ⅓ volume of culture medium (final DMSO concentration was kept at 1% v/v). After 18-20 hrs incubation at 37° C. and 5% CO2 in a humidified incubator, the culture supernatants were harvested for the determination of Aβ40 concentrations using Perkin-Elmer Human Amyloid beta 1-40 (high specificity) Kit (Cat# AL275C).
# In a Perkin-Elmer White Optiplate-384 (Cat#6007290), 2 ul culture supernatants were combined with 2μl of a 10× AlphaLISA Anti-hAβAcceptor beads+Biotinylated Antibody Anti-Aβ1-40 Mix (50 μg/mL/5 nM). After 1 hour room temperature incubation, 16 μl of a 1.25× preparation of Streptavidin (SA) Donor beads (25 μg/mL) were added and incubated for 30 minutes in the Dark. Light Emission at 615 nm was then recorded using EnVision-Alpha Reader. Levels of Aβ40 in the culture supernatants were calculated as percentage of maximum signal (cells treated with 1% DMSO without inhibitor). The IC50 values were calculated using the Excel XLfit software.
# Chain of BACE1 (P56817 46-501): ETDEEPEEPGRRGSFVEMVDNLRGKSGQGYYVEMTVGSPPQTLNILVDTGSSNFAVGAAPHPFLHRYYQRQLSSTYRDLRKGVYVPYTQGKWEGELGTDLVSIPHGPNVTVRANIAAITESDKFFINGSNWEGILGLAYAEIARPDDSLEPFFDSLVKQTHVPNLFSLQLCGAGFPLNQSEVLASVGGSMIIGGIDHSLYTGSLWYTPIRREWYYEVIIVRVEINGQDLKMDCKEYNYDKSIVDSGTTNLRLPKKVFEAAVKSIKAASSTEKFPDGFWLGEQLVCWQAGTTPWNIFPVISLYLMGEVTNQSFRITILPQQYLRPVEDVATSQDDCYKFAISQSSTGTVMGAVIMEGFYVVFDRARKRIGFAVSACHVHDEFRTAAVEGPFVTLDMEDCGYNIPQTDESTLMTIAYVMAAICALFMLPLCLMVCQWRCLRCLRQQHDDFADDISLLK
row,IC50 [nM],Structure (SMILES)
1,45,"CC1(c2cc(NC(=O)c3ccc(C#N)cn3)ccc2F)CS2(=O)=NCCCCN2C(N)=N1 (stereo in doubt) [Example 1, 5-cyano-pyridine-2-carboxylic acid [3-((3RS,4aRS)-1-amino-3-methyl-4a-oxo-3,4,6,7,8,9-hexahydro-4aλ^6-thia-2,5,9a-triaza-benzocyclohepten-3-yl)-4-fluoro-phenyl]-amide]"
2,2,"CC1(c2cc(NC(=O)c3ccc(C#N)cn3)ccc2F)CS2(=O)=NCCCCN2C(N)=N1 (stereo in doubt) [Example 2, 5-cyano-pyridine-2-carboxylic acid [3-((3RS,4aSR)-1-amino-3-methyl-4a-oxo-3,4,6,7,8,9-hexahydro-4aλ^6-thia-2,5,9a-triaza-benzocyclohepten-3-yl)-4-fluoro-phenyl]-amide]"
3,1,"C[C@@]1(c2cc(NC(=O)c3ncc(C#N)cc3Cl)ccc2F)CS2(=O)=NCCCCN2C(N)=N1 (stereo in doubt) [Example 20, 3-Chloro-5-cyano-pyridine-2-carboxylic acid [3-((3R,4aS)-1-amino-3-methyl-4a-oxo-3,4,6,7,8,9-hexahydro-4aλ^6-thia-2,5,9a-triaza-benzocyclohepten-3-yl)-4-fluoro-phenyl]-amide]"
4,10,"C[C@@]1(c2cc(NC(=O)c3ccc(OCC(F)(F)F)cn3)ccc2F)CS2(=O)=NCCCCN2C(N)=N1 (stereo in doubt) [Example 21, 5-(2,2,2-Trifluoro-ethoxy)-pyridine-2-carboxylic acid [3-((3R,4aS)-1-amino-3-methyl-4a-oxo-3,4,6,7,8,9-hexahydro-4aλ^6-thia-2,5,9a-triaza-benzocyclohepten-3-yl)-4-fluoro-phenyl]-amide]"
5,0.2,"CC#CCOc1cnc(C(=O)Nc2ccc(F)c([C@]3(C)CS4(=O)=NCCCCN4C(N)=N3)c2)cn1 (stereo in doubt) [Example 22, 5-But-2-ynyloxy-pyrazine-2-carboxylic acid [3-((3R,4aS)-1-amino-3-methyl-4a-oxo-3,4,6,7,8,9-hexahydro-4aλ^6-thia-2,5,9a-triaza-benzocyclohepten-3-yl)-4-fluoro-phenyl]-amide]"
6,1.5,"Cc1cc(F)cnc1C(=O)Nc1ccc(F)c([C@]2(C)CS3(=O)=NCCCCN3C(N)=N2)c1 (stereo in doubt) [Example 23, 5-Fluoro-3-methyl-pyridine-2-carboxylic acid [3-((3R,4aS)-1-amino-3-methyl-4a-oxo-3,4,6,7,8,9-hexahydro-4aλ^6-thia-2,5,9a-triaza-benzocyclohepten-3-yl)-4-fluoro-phenyl]-amide]"
7,1040,"CC1(c2ccccc2F)CS2(=O)=NCCCCN2C(N)=N1 (stereo in doubt) [Example A20a2, (3RS,4aSR)-3-(2-Fluoro-phenyl)-3-methyl-4a-oxo-3,4,6,7,8,9-hexahydro-4aλ^6-thia-2,5,9a-triaza-benzocyclohepten-1-ylamine]"
8,12,"C[C@@]1(c2cc(-c3cc(-c4ncc(Cl)cn4)no3)ccc2F)C[S@@]2(=O)=NCCCCN2C(N)=N1 [Example 13, (9R,11R)-7-Amino-9-(5-(3-(5-chloropyrimidin-2-yl)isoxazol-5-yl)-2-fluorophenyl)-9-methyl-2,3,4,5,9,10-hexahydro-[1,2,4]thiadiazino[1,2-a][1,2,7]thiadiazepine 11-oxide 2,2,2-trifluoroacetate]"
9,95,"C[C@@]1(c2cc(-c3cc(-c4ncc(Cl)cn4)no3)ccc2F)C[S@]2(=O)=NCCCCN2C(N)=N1 [Example 14, (9R,11S)-7-Amino-9-(5-(3-(5-chloropyrimidin-2-yl)isoxazol-5-yl)-2-fluorophenyl)-9-methyl-2,3,4,5,9,10-hexahydro-[1,2,4]thiadiazino[1,2-a][1,2,7]thiadiazepine 11-oxide 2,2,2-trifluoroacetate]"
10,95,"C[C@@]1(c2cc(-c3cn(-c4ccc(C#N)cn4)nn3)ccc2F)C[S@]2(=O)=NCCCCN2C(N)=N1 [Example 15, 6-(4-(3-((9R,11S)-7-Amino-9-methyl-11-oxido-2,3,4,5,9,10-hexahydro-[1,2,4]thiadiazino[1,2-a][1,2,7]thiadiazepin-9-yl)-4-fluorophenyl)-1H-1,2,3-triazol-1-yl)nicotinonitrile 2,2,2-trifluoroacetate]"
11,21,"C[C@@]1(c2cc(C#Cc3ccc(C#N)cc3)ccc2F)C[S@@]2(=O)=NCCCCN2C(N)=N1 [Example 16, 4-((3-((9R,11R)-7-amino-9-methyl-11-oxido-2,3,4,5,9,10-hexahydro-[1,2,4]thiadiazino[1,2-a][1,2,7]thiadiazepin-9-yl)-4-fluorophenyl)ethynyl)benzonitrile 2,2,2-trifluoroacetate]"
12,9,"COc1cnc(-c2cc(-c3ccc(F)c([C@]4(C)C[S@@]5(=O)=NCCCCN5C(N)=N4)c3)on2)cn1 [Example 17, (9R,11R)-7-Amino-9-(2-fluoro-5-(3-(5-methoxypyrazin-2-yl)isoxazol-5-yl)phenyl)-9-methyl-2,3,4,5,9,10-hexahydro-[1,2,4]thiadiazino[1,2-a][1,2,7]thiadiazepine 11-oxide 2,2,2-trifluoroacetate]"
13,694,"COc1cnc(-c2cc(-c3ccc(F)c([C@]4(C)C[S@]5(=O)=NCCCCN5C(N)=N4)c3)on2)cn1 [Example 18, (9R,11S)-7-amino-9-(2-fluoro-5-(3-(5-methoxypyrazin-2-yl)isoxazol-5-yl)phenyl)-9-methyl-2,3,4,5,9,10-hexahydro-[1,2,4]thiadiazino[1,2-a][1,2,7]thiadiazepine 11-oxide 2,2,2-trifluoroacetate]"
14,14,"C[C@@]1(c2cc(-c3cc(-c4cnc(OCC(F)F)cn4)no3)ccc2F)C[S@@]2(=O)=NCCCCN2C(N)=N1 [Example 19, (9R,11R)-7-Amino-9-(5-(3-(5-(2,2-difluoroethoxy)pyrazin-2-yl)isoxazol-5-yl)-2-fluorophenyl)-9-methyl-2,3,4,5,9,10-hexahydro-[1,2,4]thiadiazino[1,2-a][1,2,7]thiadiazepine 11-oxide 2,2,2-trifluoroacetate]"
15,2,"Cc1cc(C#N)cnc1C(=O)Nc1ccc(F)c([C@]2(C)CS3(=O)=NCC(F)(F)CN3C(N)=N2)c1 (stereo partly drawn) [Example 25, N-(3-((8R)-6-amino-3,3-difluoro-8-methyl-10-oxido-3,4,8,9-tetrahydro-2H-[1,2,6]thiadiazino[1,2-a][1,2,4]thiadiazin-8-yl)-4-fluorophenyl)-5-cyano-3-methylpicolinamide]"
